Where a name gives a salt, the structure may show the parent alone.
target: T1, recombinant guanylate cyclase reporter cell line (Rattus norvegicus, UniProt P19686+P20595); assay: Effect on a recombinant guanylate cyclase reporter cell line (B-2); assay type: cell-based; details: in some cases mean values for individual determinations
T1 construct: expressed in transfected cells
T1 sequence (P19686 1-690): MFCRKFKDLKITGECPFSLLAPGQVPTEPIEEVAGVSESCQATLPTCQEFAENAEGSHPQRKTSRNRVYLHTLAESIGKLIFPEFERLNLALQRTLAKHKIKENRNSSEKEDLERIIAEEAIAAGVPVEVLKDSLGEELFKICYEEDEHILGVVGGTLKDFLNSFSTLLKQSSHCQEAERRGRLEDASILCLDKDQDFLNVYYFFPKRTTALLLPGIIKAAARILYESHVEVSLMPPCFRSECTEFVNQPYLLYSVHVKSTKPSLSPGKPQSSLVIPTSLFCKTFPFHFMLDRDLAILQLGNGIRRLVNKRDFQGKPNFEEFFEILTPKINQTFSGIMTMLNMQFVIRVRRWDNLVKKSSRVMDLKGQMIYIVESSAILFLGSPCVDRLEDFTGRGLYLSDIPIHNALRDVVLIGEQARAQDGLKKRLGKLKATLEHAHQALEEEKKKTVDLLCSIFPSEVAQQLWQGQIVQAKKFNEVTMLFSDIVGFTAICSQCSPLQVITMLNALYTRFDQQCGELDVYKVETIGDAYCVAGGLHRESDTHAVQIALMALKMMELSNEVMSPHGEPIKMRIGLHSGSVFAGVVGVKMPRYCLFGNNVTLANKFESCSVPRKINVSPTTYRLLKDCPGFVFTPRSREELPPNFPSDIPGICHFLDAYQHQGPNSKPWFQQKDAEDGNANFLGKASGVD
T1 sequence (P20595 1-619): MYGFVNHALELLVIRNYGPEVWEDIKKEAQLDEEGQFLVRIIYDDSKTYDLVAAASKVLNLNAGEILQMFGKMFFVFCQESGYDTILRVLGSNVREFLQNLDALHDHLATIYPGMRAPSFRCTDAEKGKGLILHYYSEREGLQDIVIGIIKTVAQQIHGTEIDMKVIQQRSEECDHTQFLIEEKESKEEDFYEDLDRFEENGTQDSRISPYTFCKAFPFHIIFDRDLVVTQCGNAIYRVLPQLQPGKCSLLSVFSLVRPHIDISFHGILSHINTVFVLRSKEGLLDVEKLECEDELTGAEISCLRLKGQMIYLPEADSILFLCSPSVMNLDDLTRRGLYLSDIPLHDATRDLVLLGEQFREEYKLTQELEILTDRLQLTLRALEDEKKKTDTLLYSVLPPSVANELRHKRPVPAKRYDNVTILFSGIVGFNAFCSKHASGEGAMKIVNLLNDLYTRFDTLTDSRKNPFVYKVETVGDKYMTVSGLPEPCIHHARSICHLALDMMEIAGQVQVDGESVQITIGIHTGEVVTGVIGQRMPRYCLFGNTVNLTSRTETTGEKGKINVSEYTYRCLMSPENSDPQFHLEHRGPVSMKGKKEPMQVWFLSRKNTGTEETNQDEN
Description: B-2. Effect on a Recombinant Guanylate Cyclase Reporter Cell Line
The cellular effect of the inventive compounds is determined using a recombinant guanylate cyclase reporter cell line, as described in F. Wunder et al., Anal. Biochem. 339, 104-112 (2005).
Representative MEC values (MEC=minimum effective concentration) for the inventive compounds are shown in the table below (in some cases as mean values for individual determinations): […]

Row | MEC (minimum effective concentration) | SMILES
1 | 0.3 µM | Cc1cc(OCc2c(F)cccc2F)n2nc(C3CC3)c(C(=O)NCC(C)(N)CC(F)F)c2c1 (single isomer, unassigned) [Example 56, ent-N-(2-Amino-4,4-difluoro-2-methylbutyl)-2-cyclopropyl-7-[(2,6-difluorobenzyl)oxy]-5-methylpyrazolo[1,5-a]pyridine-3-carboxamide]
2 | 0.03 µM | Cc1cc(OCc2c(F)cccc2F)n2nc(C)c(C(=O)NC3CCN(C)c4ccccc43)c2c1 (racemic) [Example 75, rac-7-[(2,6-Difluorobenzyl)oxy]-2,5-dimethyl-N-(1-methyl-1,2,3,4-tetrahydroquinolin-4-yl)pyrazolo a]pyridine-3-carboxamide trifluoroacetate]
3 | 0.3 µM | Cc1cc(OCc2c(F)ccc(F)c2F)n2nc(C)c(C(=O)Nc3c(C)nn(Cc4ccc(F)cc4)c3C)c2c1 [Example 16, N-[1-(4-Fluorobenzyl)-3,5-dimethyl-1H-pyrazol-4-yl]-2,5-dimethyl-7-[(2,3,6-trifluorobenzyl)oxy]pyrazolo[1,5-a]pyridine-3-carboxamide]
4 | 3.0 µM | Cc1cc(OCc2c(F)cccc2F)n2nc(C)c(C(=O)NCC(N)c3cccc(C(F)(F)F)c3)c2c1 (racemic) [Example 105, rac-N-{2-Amino-2-[3-(trifluoromethyl)phenyl]ethyl}-7-[(2,6-difluorobenzyl)oxy]-2,5-dimethylpyrazolo[1,5-a]pyridine-3-carboxamide]
5 | 0.3 µM | Cc1cc(OCc2c(F)ccc(F)c2F)n2nc(C)c(C(=O)Nc3c(C(F)(F)F)n[nH]c3C)c2c1 [Example 20, 2,5-Dimethyl-N-[5-methyl-3-(trifluoromethyl)-1H-pyrazol-4-yl]-7-[(2,3,6-trifluorobenzyl)oxy]pyrazolo[1,5-a]pyridine-3-carboxamide]
6 | 1.0 µM | Cc1ccc2c(c1)OC(C)(C)CC2NC(=O)c1c(C)nn2c(OCc3c(F)cccc3F)cc(C)cc12 (racemic) [Example 137, rac-7-[(2,6-Difluorobenzyl)oxy]-2,5-dimethyl-N-(2,2,7-trimethyl-3,4-dihydro-2H-chromen-4-yl)pyrazolo[1,5-a]pyridine-3-carboxamide]
7 | 0.3 µM | Cc1cc(OCc2c(F)cccc2F)n2nc(C)c(C(=O)NC3CCOc4ccccc43)c2c1 (racemic) [Example 87, rac-7-[(2,6-Difluorobenzyl)oxy]-N-(3,4-dihydro-2H-chromen-4-yl)-2,5-dimethylpyrazolo[1,5-a]pyridine-3-carboxamide]
8 | 1.0 µM | Cc1cc(OCc2c(F)cccc2F)n2nc(C)c(C(=O)NCC(C)(N)CC(F)F)c2c1 (single isomer, unassigned) [Example 47, ent-N-(2-Amino-4,4-difluoro-2-methylbutyl)-7-[(2,6-difluorobenzyl)oxy]-2,5-dimethylpyrazolo[1,5-a]pyridine-3-carboxamide]
9 | 0.1 µM | CCCC[C@H](CO)NC(=O)c1c(C)nn2c(OCc3c(F)cccc3F)cc(C)cc12 [Example 144, 7-[(2,6-Difluorobenzyl)oxy]-N-[(2R)-1-hydroxyhexan-2-yl]-2,5-dimethylpyrazolo[1,5-a]pyridine-3-carboxamide]
10 | 1.0 µM | COc1ccc2c(c1)C(NC(=O)c1c(C)nn3c(OCc4c(F)cccc4F)cc(C)cc13)CCN2 (racemic) [Example 102, rac-7-[(2,6-Difluorobenzyl)oxy]-N-(6-methoxy-1,2,3,4-tetrahydroquinolin-4-yl)-2,5-dimethylpyrazolo[1,5-a]pyridine-3-carboxamide]
11 | 10 µM | Cc1cc(OCc2c(F)cccc2F)n2nc(C)c(C(=O)NCCC(C)(C)N)c2c1 [Example 121, N-(3-Amino-3-methylbutyl)-7-[(2,6-difluorobenzyl)oxy]-2,5-dimethylpyrazolo[1,5-a]pyridine-3-carboxamide]
12 | 0.3 µM | Cc1cc(OCc2c(F)ccc(F)c2F)n2nc(C)c(C(=O)NC(C)COCC(F)(F)F)c2c1 (racemic) [Example 24, rac-2,5-Dimethyl-7-[(2,3,6-trifluorobenzyl)oxy]-N-[1-(2,2,2-trifluoroethoxy)propan-2-yl]pyrazolo[1,5-a]pyridine-3-carboxamide]
13 | 3.0 µM | Cc1cc(OCc2c(F)cccc2F)n2nc(C)c(C(=O)NCC3CCC(C#N)CC3)c2c1 (stereo not shown) [Example 62, N-[(4-Cyanocyclohexyl)methyl]-7-[(2,6-difluorobenzyl)oxy]-2,5-dimethylpyrazolo[1,5-a]pyridine-3-carboxamide]
14 | 1.0 µM | Cc1cc(OCc2c(F)cccc2F)n2nc(C)c(C(=O)NC3c4cccc(F)c4OC3C)c2c1 (stereo not shown) [Example 111, 7-[(2,6-Difluorobenzyl)oxy]-N-(7-fluoro-2-methyl-2,3-dihydro-1-benzofur-3-yl)-2,5-dimethylpyrazolo[1,5-a]pyridine-3-carboxamide]
15 | 0.3 µM | COC(=O)C12CCC(NC(=O)c3c(C)nn4c(OCc5c(F)cccc5F)cc(C)cc34)(CC1)CC2 [Example 152, methyl 4-[({7-[(2,6-difluorobenzyl)oxy]-2,5-dimethylpyrazolo[1,5-a]pyridin-3-yl}carbonyl)amino]bicyclo[2.2.2]octane-1-carboxylate]
16 | 1.0 µM | Cc1cc(OCc2c(F)cccc2F)n2nc(C)c(C(=O)NC(CN)c3cccc(OC(F)(F)F)c3)c2c1 (racemic) [Example 132, rac-N-{2-Amino-1-[3-(trifluoromethoxy)phenyl]ethyl}-7-[(2,6-difluorobenzyl)oxy]-2,5-dimethylpyrazolo[1,5-a]pyridine-3-carboxamide]
17 | 0.3 µM | Cc1cc(OCc2c(F)ccc(F)c2F)n2nc(C)c(C(=O)Nc3cnn(CC(F)(F)F)c3)c2c1 [Example 17, 2,5-Dimethyl-7-[(2,3,6-trifluorobenzyl)oxy]-N-[1-(2,2,2-trifluoroethyl)-1H-pyrazol-4-yl]pyrazolo[1,5-a]pyridine-3-carboxamide]
18 | 1.0 µM | CCCC[C@@H](C)NC(=O)c1c(C)nn2c(OCc3c(F)cccc3F)cc(C)cc12 [Example 94, 7-[(2,6-Difluorobenzyl)oxy]-N-[(2R)-hexan-2-yl]-2,5-dimethylpyrazolo[1,5-a]pyridine-3-carboxamide]
19 | 0.3 µM | Cc1cc(OCc2c(F)cccc2F)n2nc(C)c(C(=O)NC3CCCc4cc(F)ccc43)c2c1 (racemic) [Example 150, rac-7-[(2,6-Difluorobenzyl)oxy]-N-(6-fluoro-1,2,3,4-tetrahydronaphthalen-1-yl)-2,5-dimethylpyrazolo[1,5-a]pyridine-3-carboxamide]
20 | 0.3 µM | Cc1cc(OCc2c(F)cccc2F)n2nc(C)c(C(=O)NC(C#N)c3ccc(Cl)cc3)c2c1 (racemic) [Example 134, rac-N-[(4-Chlorophenyl)(cyano)methyl]-7-[(2,6-difluorobenzyl)oxy]-2,5-dimethylpyrazolo[1,5-a]pyridine-3-carboxamide]
21 | 1.0 µM | Cc1cc(OCc2c(F)cccc2F)n2nc(C)c(C(=O)NCC(C)(N)C(F)(F)F)c2c1 (racemic) [Example 109, rac-N-(2-Amino-3,3,3-trifluoro-2-methylpropyl)-7-[(2,6-difluorobenzyl)oxy]-2,5-dimethylpyrazolo[1,5-a]pyridine-3-carboxamide]

Row | SMILES | MEC (minimum effective concentration)
22 | CCCC(C)(N)CNC(=O)c1c(C)nn2c(OCCC(C)C)cc(C)cc12 (racemic) [Example 160, rac-N-(2-Amino-2-methylpentyl)-2,5-dimethyl-7-(3-methylbutoxy)pyrazolo[1,5-a]pyridine-3-carboxamide] | 3.0 µM
